{"source": "patent US20110275685A1", "about": "“SALT AND POLYMORPHS OF A KINESIN INHIBITOR COMPOUND” (priority 2009, published 2011)", "key": {"[1]": {"assay": "Stability of liquid formulations of the salts", "details": "for stability in DMSO: either diluted or not", "experimental": "From the mesylate, tosylate and hippurate salts as prepared above, liquid formulations were prepared by dissolving/suspending these salts in a solvent/suspension medium. Stability tests were made on these liquid formulations. The amount of degradation products and the degree of discoloration were established."}, "[2]": {"assay": "Solid state stability of the salts (HPLC, colour)", "details": "Bulk (HPLC)", "text": "Tests for solid state stability were made for the mesylate, tosylate and hippurate salts as prepared above."}, "[3]": {"assay": "Weight loss on drying by thermogravimetry (hygroscopicity)", "format": "physicochemical", "details": "for hygroscopicity: judged from weight loss as prepared vs 1 day at 92% relative humidity", "description": "The weight loss (%) on drying, measured by thermogravimetry, of the salt as prepared was 1.12%. If kept for 1 day at 92% relative humidity, the weight loss was 1.71%.\nThe weight loss (%) on drying, measured by thermogravimetry, of the salt as prepared was 2.08%. If kept for 1 day at 92% relative humidity, the weight loss was 2.21%.\nThe weight loss (%) on drying, measured by thermogravimetry, of the salt as prepared was 1.76%. If kept for 1 day at 92% relative humidity, the weight loss was 2.14%."}, "[4]": {"assay": "Solubility of the obtained material", "format": "physicochemical", "details": "thermodynamic from solid", "procedure": "2.40 g of amorphous N-((S)-3-amino-4-fluorobutyl)-N-((R)-1-(1-benzlyl-4-(2,5-difluoro-phenyl)-1H-imidazol-2-yl)-2,2-dimethylpropyl)-2-hydroxyacetamide were dissolved at 50° C. in 9 ml acetonitrile/water 95:5 v/v having a water activity of 0.6, and stirred. Within about 1 minute, a suspension was formed. Another 6 ml of acetonitrile/water 95:5 v/v were added. Subsequently, the suspension was cooled to room temperature in about 1 hour and stirred for 14 hours. Then, the suspension was filtered and air dried for about 5 minutes. Yield: 1.82 g (75%). The obtained material was analyzed by X-ray diffraction (FIG. 1)."}, "[5]": {"details": "0.1% solutions or suspensions, 1 week, 50° C., Methanol"}, "[6]": {"details": "0.1% solutions or suspensions, 1 week, 50° C., pH 3"}, "[7]": {"details": "0.1% solutions or suspensions, 1 week, 50° C., pH 4.5"}, "[8]": {"details": "0.1% solutions or suspensions, 1 week, 50° C., pH 5"}, "[9]": {"details": "0.1% solutions or suspensions, 1 week, 50° C., pH 7"}, "[10]": {"details": "2% solutions or suspensions, 1 day, room temperature, DMSO"}, "[11]": {"details": "2% solutions or suspensions, 1 day, room temperature, Dilution pH 6.8 (diluted with buffer 1:100)"}, "[12]": {"details": "5% solutions, 1 day, room temperature, DMSO"}, "[13]": {"details": "5% solutions, 1 day, room temperature, Dilution pH 6.8"}, "[14]": {"details": "2 weeks, 50° C., tight container"}, "[15]": {"details": "Xenon light (approx. 1200 kLuxh)"}}, "note": "Structures can show the parent of a compound that is named as a salt. Where two headings read alike, the source gives them in different places.", "data": [{"smiles": "CC(C)(C)[C@H](c1nc(-c2cc(F)ccc2F)cn1Cc1ccccc1)N(CC[C@H](N)CF)C(=O)CO", "note": "[Hippurate, N-((S)-3-amino-4-fluorobutyl)-N-((R)-1-(1-benzlyl-4-(2,5-difluorophenyl)-1H-imidazol-2-yl)-2,2-dimethylpropyl)-2-hydroxyacetamide]", "values": [{"measurement": "Amount of degradation products [%]", "setting": "[1]; [5]", "result": 11.81, "unit": "%"}, {"measurement": "Amount of degradation products [%]", "setting": "[1]; [6]", "result": 0.48, "unit": "%"}, {"measurement": "Amount of degradation products [%]", "setting": "[1]; [7]", "result": 1.03, "unit": "%"}, {"measurement": "Amount of degradation products [%]", "setting": "[1]; [8]", "result": 1.80, "unit": "%"}, {"measurement": "Amount of degradation products [%]", "setting": "[1]; [9]", "result": 5.32, "unit": "%"}, {"measurement": "Amount of degradation products [%]", "setting": "[1]; [10]", "result": 0.78, "unit": "%"}, {"measurement": "Amount of degradation products [%]", "setting": "[1]; [11]", "result": 0.82, "unit": "%"}, {"measurement": "Amount of degradation products [%]", "setting": "[1]; [12]", "result": 0.94, "unit": "%"}, {"measurement": "Amount of degradation products [%]", "setting": "[1]; [13]", "result": 0.84, "unit": "%"}, {"measurement": "stability in DMSO", "setting": "[1]", "result": "very stable"}, {"measurement": "Amount of degradation products [%]", "setting": "[2]; 2 weeks, 50° C., 75% r.h.", "result": 1.02, "unit": "%"}, {"measurement": "Amount of degradation products [%]", "setting": "[2]; [14]", "result": 0.79, "unit": "%"}, {"measurement": "Amount of degradation products [%]", "setting": "[2]; [15]", "result": 0.43, "unit": "%"}, {"measurement": "hygroscopicity", "setting": "[3]", "result": "low hygroscopicity"}, {"measurement": "weight loss (%) on drying, measured by thermogravimetry", "setting": "[3]; kept for 1 day at 92% relative humidity, listed as hippurate salt", "result": 2.14, "unit": "%"}, {"measurement": "weight loss (%) on drying, measured by thermogravimetry", "setting": "[3]; salt as prepared, listed as hippurate salt", "result": 1.76, "unit": "%"}]}, {"smiles": "CC(C)(C)[C@H](c1nc(-c2cc(F)ccc2F)cn1Cc1ccccc1)N(CC[C@H](N)CF)C(=O)CO", "note": "[Mesylate, N-((S)-3-amino-4-fluorobutyl)-N-((R)-1-(1-benzlyl-4-(2,5-difluorophenyl)-1H-imidazol-2-yl)-2,2-dimethylpropyl)-2-hydroxyacetamide]", "values": [{"measurement": "Amount of degradation products [%]", "setting": "[1]; [5]", "result": 0.21, "unit": "%"}, {"measurement": "Amount of degradation products [%]", "setting": "[1]; [6]", "result": 0.25, "unit": "%"}, {"measurement": "Amount of degradation products [%]", "setting": "[1]; [7]", "result": 0.69, "unit": "%"}, {"measurement": "Amount of degradation products [%]", "setting": "[1]; [8]", "result": 0.71, "unit": "%"}, {"measurement": "Amount of degradation products [%]", "setting": "[1]; [9]", "result": 3.87, "unit": "%"}, {"measurement": "Amount of degradation products [%]", "setting": "[1]; [10]", "result": 0.07, "unit": "%"}, {"measurement": "Amount of degradation products [%]", "setting": "[1]; [11]", "result": 0.19, "unit": "%"}, {"measurement": "Amount of degradation products [%]", "setting": "[1]; [12]", "result": "<0.05", "unit": "%"}, {"measurement": "Amount of degradation products [%]", "setting": "[1]; [13]", "result": 0.30, "unit": "%"}, {"measurement": "stability in DMSO", "setting": "[1]", "result": "very stable"}, {"measurement": "stability in methanol", "setting": "[1]; in methanol", "result": "very stable"}, {"measurement": "Amount of degradation products [%]", "setting": "[2]; 2 weeks, 50° C., 75% r.h.", "result": "<0.05", "unit": "%"}, {"measurement": "Amount of degradation products [%]", "setting": "[2]; [14]", "result": 0.07, "unit": "%"}, {"measurement": "Amount of degradation products [%]", "setting": "[2]; [15]", "result": "<0.05", "unit": "%"}, {"measurement": "hygroscopicity", "setting": "[3]", "result": "low hygroscopicity"}, {"measurement": "weight loss (%) on drying, measured by thermogravimetry", "setting": "[3]; kept for 1 day at 92% relative humidity, listed as mesylate salt", "result": 2.21, "unit": "%"}, {"measurement": "weight loss (%) on drying, measured by thermogravimetry", "setting": "[3]; salt as prepared, listed as mesylate salt", "result": 2.08, "unit": "%"}]}, {"smiles": "CC(C)(C)[C@H](c1nc(-c2cc(F)ccc2F)cn1Cc1ccccc1)N(CC[C@H](N)CF)C(=O)CO", "note": "[Tosylate, N-((S)-3-amino-4-fluorobutyl)-N-((R)-1-(1-benzlyl-4-(2,5-difluorophenyl)-1H-imidazol-2-yl)-2,2-dimethylpropyl)-2-hydroxyacetamide]", "values": [{"measurement": "Amount of degradation products [%]", "setting": "1 week, 0.1 %", "result": 0.35, "unit": "%"}, {"measurement": "Amount of degradation products [%]", "setting": "1 week, 0.1 %, pH 3", "result": 0.27, "unit": "%"}, {"measurement": "Amount of degradation products [%]", "setting": "1 week, 0.1 %, pH 4.5", "result": 0.59, "unit": "%"}, {"measurement": "Amount of degradation products [%]", "setting": "1 week, 0.1 %, pH 5", "result": 1.81, "unit": "%"}, {"measurement": "Amount of degradation products [%]", "setting": "1 week, 0.1 %, pH 7", "result": 7.60, "unit": "%"}, {"measurement": "Amount of degradation products [%]", "setting": "1 day, 0.02 %, pH 6.8", "result": 0.33, "unit": "%"}, {"measurement": "Amount of degradation products [%]", "setting": "1 day, 2 %", "result": 0.14, "unit": "%"}, {"measurement": "Amount of degradation products [%]", "setting": "1 day, 5 %", "result": 0.15, "unit": "%"}, {"measurement": "Amount of degradation products [%]", "setting": "1 day, pH 6.8", "result": 0.11, "unit": "%"}, {"measurement": "hygroscopicity", "setting": "[3]", "result": "low hygroscopicity"}, {"measurement": "weight loss (%) on drying, measured by thermogravimetry", "setting": "[3]; kept for 1 day at 92% relative humidity, listed as tosylate salt", "result": 1.71, "unit": "%"}, {"measurement": "weight loss (%) on drying, measured by thermogravimetry", "setting": "[3]; salt as prepared, listed as tosylate salt", "result": 1.12, "unit": "%"}]}, {"smiles": "CC(C)(C)[C@H](c1nc(-c2cc(F)ccc2F)cn1Cc1ccccc1)N(CC[C@H](N)CF)C(=O)CO", "note": "[crystalline form D, N-((S)-3-amino-4-fluorobutyl)-N-((R)-1-(1-benzlyl-4-(2,5-difluorophenyl)-1H-imidazol-2-yl)-2,2-dimethylpropyl)-2-hydroxyacetamide mesylate]", "values": [{"measurement": "solubility", "setting": "[4]; 0.1 N HCl, pH 1, simulated gastric fluid, read-out: solubility in 0.1 N HCl", "result": 1400, "unit": "µg/mL"}, {"measurement": "solubility", "setting": "[4]; buffer pH 6.8, pH 6.8, aqueous buffer, read-out: solubility in buffer with pH 6.8", "result": 10, "unit": "µg/mL"}, {"measurement": "solubility", "setting": "[4]; water, read-out: solubility in water", "result": 4400, "unit": "µg/mL"}]}]}
